Reference: patent US9845292B2 (Max-Planck-Gesellschaft zur Förderung der Wissenschaften …, priority 2013, dated 2017)
Where two headings read alike, the source gives them in different places.

Legend:
FKBP51 = molecular target: T1, FKBP51 (Homo sapiens, UniProt Q13451); assay: Fluorescence polarization binding assay, FK1-domain of FKBP51WT with tracer F4; set-up: Purified FK1-domains of FKBP51WT (4.5 nM) with F4 (3 nM), FKBP52WT (400 nM) with F2 (20 nM); made in house; host or cells: E. coli BL21(DE3)pLysS; details: read-out: Affinity(Ki) for FKBP51
T1 sequence (Q13451 42-130 limits assumed): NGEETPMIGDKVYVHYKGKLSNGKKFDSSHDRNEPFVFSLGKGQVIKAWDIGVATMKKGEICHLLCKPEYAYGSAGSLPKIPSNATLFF
Protocol: (§1) The target protein was also diluted in this assay buffer at double the highest concentration required for the final sample. This protein stock was used for a 1:1 serial dilution.
(§2) The inventive compound was dissolved in DMSO to reach a 100-times concentrated stock solution. This was used for a 1:1 serial dilution in DMSO.
(§3) For FKBP12, −51, and −52 the binding assays were performed in duplicates in the plate format.
(§4) The competition curves were analyzed by using SigmaPlot9. Data were fitted to a four parameter logistic curve to deduce the IC50 values. […] A=(Amax−Amin)/[L]t×(([L]t×((2×((Klig+Kcomp+[L]t+[I]t−[R]t)^2−3×(Kcomp×([L]t−[R]t)+Klig×([I]t−[R]t)+Klig×Kcomp))^0.5×COS(ARCCOS((−2×(Klig+Kcomp+[L]t+[I]t−[R]t)^3+9×(Klig+Kcomp+[L]t+[I]t−[R]t)×(Kcomp×([L]t−[R]t)+Klig×([I]t−[R]t)+Klig×Kcomp)−27×(−1×Klig×Kcomp×[R]t))/(2×((((Klig+Kcomp+[L]t+[I]t−[R]t)^2−3×(Kcomp×([L]t−[R]t)+Klig×([I]t−[R]t)+Klig×Kcomp))^3)^0.5)))/3))−(Klig+Kcomp+[L]t+[I]t−[R]t)))/((3×Klig)+((2×((Klig+Kcomp+[L]t+[I]t−[R]t)^2−3×(Kcomp×([L]t−[R]t)+Klig×([I]t−[R]t)+Klig×Kcomp))^0.5×COS(ARCCOS((−2×(Klig+Kcomp+[L]t+[I]t−[R]t)^3+9×(Klig+Kcomp+[L]t+[I]t−[R]t)×(Kcomp×([L]t−[R]t)+Klig×([I]t−[R]t)+Klig×Kcomp)−27×(−1×Klig×Kcomp×[R]t))/(2×((((Klig+Kcomp+[L]t+[I]t−[R]t)^2−3×(Kcomp×([L]t−[R]t)+Klig×([I]t−[R]t)+Klig×Kcomp))^3)^0.5)))/3))−(Klig+Kcomp+[L]t+[I]t−[R]t))))+Amin
(§5) In this equation Klig and Kcomp stand for the Kd values of the used tracer or competing inhibitor, [I]t is referring to the total concentration of the titrated inhibitor.
(§6) Inhibition constants were measured in a fluorescence polarization binding assay by titrating the compounds.

FKBP52 = molecular target: T2, FKBP52 (Homo sapiens, UniProt Q02790); assay: Fluorescence polarization binding assay, FK1-domain of FKBP52WT with tracer F2 (selectivity FKBP51 vs. FKBP52); details: selectivity factor over FKBP52
T2 construct: Purified FK1-domains of FKBP51WT (4.5 nM) with F4 (3 nM), FKBP52WT (400 nM) with F2 (20 nM); implied by Ni-NTA purification) (N); made in house; host or cells: E. coli BL21(DE3)pLysS
T2 sequence (Q02790 50-138 limits assumed): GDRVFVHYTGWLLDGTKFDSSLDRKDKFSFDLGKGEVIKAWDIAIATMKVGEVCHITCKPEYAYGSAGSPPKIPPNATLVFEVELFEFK
Protocol: as §1, §2, §3, §4, §5
The Selectivity of the Compounds was Classified by Ki(FKBP51)/Ki(FKBP52)
as §6

[1] = FK1-domain of FKBP51WT (4.5 nM) with F4 (3 nM), A series
[2] = FKBP52WT (400 nM) with F2 (20 nM), A series

| Structure (SMILES) | Ki (FKBP51; [1]) [µM] | Ki(FKBP51)/Ki(FKBP52) (FKBP52; [2]) | Ki (FKBP51; compounds B01-C25) [µM] | Ki(FKBP51)/Ki(FKBP52) (FKBP52; compounds B01-C25) |
| --- | --- | --- | --- | --- |
| COc1ccc(CCC(NC(=O)[C@@H]2CCCCN2C(=O)[C@H](c2cc(OC)c(OC)c(OC)c2)[C@@H]2C=CCCC2)c2cccc(OCC(=O)O)c2)cc1OC (stereo partly drawn) [Compound A16, 2-(3-((R)-1-((S)-1-((S)-2-((R)-Cyclohex-2-en-1-yl)-2-(3,4,5-trimethoxyphenyl)acetyl)piper-idine-2-carboxamido)-3-(3,4-dimethoxyphenyl)propyl)phenoxy) acetic acid] | 0.1 to 1 | ++ (>50 ++) |  |  |
| COc1ccc(CC[C@@H](OC(=O)[C@@H]2CCCCN2C(=O)[C@H](c2cccc(F)c2)C2CCCCC2)c2cccc(OCC(=O)O)c2)cc1OC [Compound A36, 2-(3-((R)-1-(((S)-1-((S)-2-cyclohexyl-2-(3-fluorophenyl)acetyl)piperidine-2-carbonyl)oxy)-3-(3,4-dimethoxyphenyl)propyl)phenoxy)acetic acid] | 1 to 10 | +++ (>500 +++) |  |  |
| COc1cc([C@@H](C(=O)N2CCCC[C@H]2C(=O)N[C@@H](C(N)=O)C(C)C)C2CCCCC2)cc(OC)c1OC [Compound B04, (S)-N-((R)-1-amino-3-methyl-1-oxobutan-2-yl)-1-((S)-2-cyclohexyl-2-(3,4,5-trimethoxyphenyl)acetyl)piperidine-2-carboxamide] |  |  | 1 to 10 | + (>5 +) |
| COc1ccc(CC[C@@H](OC(=O)[C@@H]2CCCCN2C(=O)[C@@H](Cc2ccccc2)c2cc(OC)c(OC)c(OC)c2)c2cccc(OCC(=O)O)c2)cc1OC [Compound A10, 2-(3-((R)-3-(3,4-dimethoxyphenyl)-1-(((S)-1-((S)-3-phenyl-2-(3,4,5-trimethoxyphenyl)propanoyl)piperidine-2-carbonyl)oxy)propyl)phenoxy)acetic acid] | 10 to 50 | + (>5 +) |  |  |
| COc1cc([C@@H](C(=O)N2CCCC[C@H]2C(=O)N[C@H](C(N)=O)C(C)C)C2CCCCC2)cc(OC)c1OC [Compound B03, (S)-N-((S)-1-amino-3-methyl-1-oxobutan-2-yl)-1-((S)-2-cyclohexyl-2-(3,4,5-trimethoxyphenyl)acetyl)piperidine-2-carboxamide] |  |  | 10 to 50 | + (>5 +) |
| COc1ccc(CCC(OC(=O)[C@@H]2CCCCN2C(=O)[C@H](NC(=O)c2ccccc2)C2CCCCC2)c2cccc(OCC(=O)O)c2)cc1OC (stereo partly drawn) [Compound A23, 2-(3-(1-(((2S)-1-(2-benzamido-2-cyclohexylacetyl)piperidine-2-carbonyl)oxy)-3-(3,4-dimethoxyphenyl)propyl)phenoxy)acetic acid] | 10 to 50 | + (>5 +) |  |  |
| COc1ccc(CCC(OC(=O)[C@@H]2CCCCN2C(=O)C(NC(=O)C2CCCCC2)C2CCCCC2)c2cccc(OCC(=O)O)c2)cc1OC (stereo partly drawn) [Compound A26, 2-(3-(1-(((2S)-1-(2-(cyclohexanecarboxamido)-2-cyclohexylacetyl)piperidine-2-carbonyl)oxy)-3-(3,4-dimethoxyphenyl)propyl)phenoxy)acetic acid] | 10 to 50 | + (>5 +) |  |  |
| COc1cc([C@@H](C(=O)N2CCCC[C@H]2C(=O)N[C@H](C)C(N)=O)C2CCCCC2)cc(OC)c1OC [Compound B02, (S)-N-((R)-1-amino-1-oxopropan-2-yl)-1-((S)-2-cyclohexyl-2-(3,4,5-trimethoxyphenyl)acetyl)piperidine-2-carboxamide] |  |  | 1 to 10 | ++ (>50 ++) |
| C=CC[C@H](C(=O)N1CCCC[C@H]1C(=O)O[C@H](CCc1ccc(OC)c(OC)c1)c1cccc(OCC(=O)O)c1)c1cc(OC)c(OC)c(OC)c1 [Reference A01, 2-(3-((R)-3-(3,4-Dimethoxyphenyl)-1-(((S)-1-((S)-2-(3,4,5-trimethoxyphenyl)pent-4-enoyl)piperidine-2-carbonyl)oxy)propyl)phenoxy)acetic acid] | 10 to 50 | not selective (<5 not selective) |  |  |

More lines, now with the values ahead:

| Ki (FKBP51; [1]) [µM] | Ki(FKBP51)/Ki(FKBP52) (FKBP52; [2]) | Ki (FKBP51; compounds B01-C25) [µM] | Ki(FKBP51)/Ki(FKBP52) (FKBP52; compounds B01-C25) | Structure (SMILES) |
| --- | --- | --- | --- | --- |
|  |  | 1 to 10 | ++ (>50 ++) | CC[C@H](NC(=O)[C@@H]1CCCCN1C(=O)[C@H](c1cc(OC)c(OC)c(OC)c1)C1CCCCC1)C(N)=O [Compound B12, (S)-N-((S)-1-amino-1-oxobutan-2-yl)-1-((S)-2-cyclohexyl-2-(3,4,5-trimethoxyphenyl)acetyl)piperidine-2-carboxamide] |
|  |  | 10 to 50 | ++ (>50 ++) | COc1cc([C@@H](C(=O)N2CCCC[C@H]2C(=O)NC2(C(N)=O)CC2)C2CCCCC2)cc(OC)c1OC [Compound B26, (S)-N-(1-carbamoylcyclopropyl)-1-((S)-2-cyclohexyl-2-(3,4,5-trimethoxyphenyl)acetyl)piperidine-2-carboxamide] |
|  |  | 1 to 10 | +++ (>500 +++) | COc1cc([C@@H](C(=O)N2CCCC[C@H]2C(=O)NC(C)(C)C(N)=O)C2CCCCC2)cc(OC)c1OC [Compound B11, (S)-N-(1-amino-2-methyl-1-oxopropan-2-yl)-1-((S)-2-cyclohexyl-2-(3,4,5-trimethoxyphenyl)acetyl)piperidine-2-carboxamide] |
|  |  | 10 to 50 | + (>5 +) | COc1cc([C@@H](C(=O)N2CCCC[C@H]2C(=O)N[C@@H](Cc2c[nH]cn2)C(N)=O)C2CCCCC2)cc(OC)c1OC [Compound B35, (S)-N-((S)-1-amino-3-(1H-imidazol-4-yl)-1-oxopropan-2-yl)-1-((S)-2-cyclohexyl-2-(3,4,5-trimethoxyphenyl)acetyl)piperidine-2-carboxamide] |
|  |  | 1 to 10 | ++ (>50 ++) | COc1cc([C@@H](C(=O)N2CCCC[C@H]2C(=O)N[C@@H](CO)C(N)=O)C2CCCCC2)cc(OC)c1OC [Compound B22, (S)-N-((S)-1-amino-3-hydroxy-1-oxopropan-2-yl)-1-((S)-2-cyclohexyl-2-(3,4,5-trimethoxyphenyl)acetyl)piperidine-2-carboxamide] |
|  |  | 0.1 to 1 | ++++ (>5000 ++++) | COc1cc([C@@H](C(=O)N2CCCC[C@H]2C(=O)NC2(C(N)=O)CCCC2)C2CCCCC2)cc(OC)c1OC [Compound B28, (S)-N-(1-carbamoylcyclopentyl)-1-((S)-2-cyclohexyl-2-(3,4,5-trimethoxyphenyl)acetyl)piperidine-2-carboxamide] |
|  |  | 1 to 10 | +++ (>500 +++) | COc1cc([C@@H](C(=O)N2CCCC[C@H]2C(=O)NC2(C(=O)NCC(N)=O)CCCC2)C2CCCCC2)cc(OC)c1OC [Compound B33, (S)-N-(1-((2-amino-2-oxoethyl)carbamoyl)cyclopentyl)-1-((S)-2-cyclohexyl-2-(3,4,5-trimethoxyphenyl)acetyl)piperidine-2-carboxamide] |
|  |  | 1 to 10 | ++ (>50 ++) | CCC(C)OC(=O)C1CCCCN1C(=O)[C@H](c1cc(OC)c(OC)c(OC)c1)C1CCCCC1 (stereo in doubt) [Compound C08, (S)-(R)-sec-butyl-1-((S)-2-cyclohexyl-2-(3,4,5-trimethoxyphenyl)acetyl) piperidine-2-carboxylate] |
|  |  | 1 to 10 | +++ (>500 +++) | COc1cc([C@@H](C(=O)N2CCCC[C@H]2C(=O)OC2(C)CCCC2)C2CCCCC2)cc(OC)c1OC [Compound C11, (S)-1-methylcyclopentyl-1-((S)-2-cyclohexyl-2-(3,4,5-trimethoxyphenyl)acetyl) piperidine-2-carboxylate] |
|  |  | 1 to 10 | +++ (>500 +++) | COc1cc([C@@H](C(=O)N2CCCC[C@H]2C(=O)OC2CCCC2)C2CCCCC2)cc(OC)c1OC [Compound C13, (S)-cyclopentyl-1-((S)-2-cyclohexyl-2-(3,4,5-trimethoxyphenyl)acetyl)piperidine-2-carboxylate] |
